The source of these data is patent publication US4172118A, “Diphenylamine containing therapeutic composition and its applications, particularly in veterinary medicine” (METABIO, priority 1976, dated 1979).

One data set relates to myases. Conditions: in animals; Merck Index, 8th Ed., p. 387; cited from earlier work.
In a further data set the test system is Nematodes. The note with it: in dogs; C.A., Vol. 35, 197, 9; cited from earlier work.
Data set [1] relates to mice. The experiment in a line: Acute toxicity of bithionol sulfoxide with/without diphenylamine in mice (death rate). Conditions: mice, oral; conclusion in words. The class given is in vivo, mice (male). As for the experimental part:
(§1) The acute toxicity of bithionol sulfoxide was compared with that of a combination of 20 parts bithionol sulfoxide per part diphenylamine.
(§2) Ten groups of 10 male mice each were used for this test. Five reference groups were administered increasing dosages of bithionol sulfoxide alone. The five other groups were administered the bithionol sulfoxide+diphenylamine combination. The test materials were administered orally.
(§3) The data relating to the death rate variations in both groups, with respect to the dosages of product used, are set forth in the following Table.

For data set [2] the following is noted: C.A., Vol. 54 17708g; cited from earlier work.
The conditions of data set [3]: C.A., Vol. 50-15949d; cited from earlier work.
Data set [4] concerns mice. The experiment in a line: Acute toxicity of hexachlorophene with/without diphenylamine in mice (death rate). The class given is in vivo, mice (male). Conditions: mice, oral; conclusion in words. Here is the method: (§4) Acute toxicity tests were conducted in mice. The death rate noted in mice administered hexachlorophene alone was compared with that noted in mice which were administered the same dosages of hexachlorophene, but which had previously been protected by administration of diphenylamine.
(§5) Ten groups of 10 male mice each were used in such experiments. Five reference groups were given hexachlorophene alone, at increasing dosages. The five other groups were administered diphenylamine at a dosage of 1.5 mg/kg one-half hour prior to administration of the same hexachlorophene dosages as the reference animals. Both compounds were administered orally, using peanut oil as the excipient.
(§6) The data relating to the death rate variations in both groups, with respect to the dosages of compound used, are set forth in the following Table.

The next data set has as its system Limousin ewes. Kind of data set: Hexachlorophene intoxication in ewes, clinical signs and weight. It counts as in vivo. As for the experimental part:
5. Two groups of non-pregnant Limousin ewes, weighing from 45 to 52 kg, were intoxicated with hexachlorophene at a dosage of 90 mg/kg, administered orally; whereas the generally used therapeutic dosage is 10 mg/kg.
The clinical signs, and particularly the variation of the weight curve, were noted over a 5 day period of time.
One of the groups was simultaneously administered 2 mg/kg diphenylamine, by the same route of administration.

Data set [5] relates to serum glutamic oxalacetic transaminase (S.G.O.T.). The experiment in a line: Carbon tetrachloride intoxication in ewes, S.G.O.T. level. The class given is in vivo, Ile-de-France ewes. The note with it: CCl4 3600 mg/kg sub-cutaneous. Here is the method: 4. Two groups of non-pregnant Ile-de-France ewes, weighing from 46 to 68 kg, were intoxicated with carbon tetrachloride administered sub-cutaneously at a dosage of 3600 mg/kg, as a suspension in vaseline oil.
The second group alone was simultaneously administered diphenylamine at a dosage of 100 mg/kg.
The criterion used to evaluate the magnitude of the intoxication was the variation of the serum glutamic oxalacetic transaminase (S.G.O.T.) level.
In the following Table, the percent increase of said serum levels is given with respect to the level determined prior to the intoxication.

The subject of a further data set is sheep. The experiment in a line: Hexachlorophene oral intoxication in sheep with/without diphenylamine (deaths). It counts as in vivo. The note with it: for Number of sheep killed: of 5 sheep. As for the experimental part:
7. Six groups of 5 sheep each were orally intoxicated with increasing dosages of hexachlorophene (135-142.5-150 mg/kg) with or without diphenylamine.

The nature of data set [6]: Acute toxicity of bithionol sulfoxide with/without diphenylamine in mice (death rate). The note with it: mouse, in vivo, 7 days. The class given is in vivo, mice (male). Here is the method:
as §1, §2, §3

Data set [7] in a line: Acute toxicity of hexachlorophene with/without diphenylamine in mice (death rate). It counts as in vivo, mice (male). The note with it: mouse, in vivo, 7 days, combination: diphenylamine 1.5 mg/kg oral one-half hour prior. Here is the method:
as §4, §5, §6

Another data set deals with liver. Kind of data set: Pentobarbital-induced sleeping test in mice (hepato-toxicity of carbon tetrachloride). The class given is in vivo. The note with it: CCl4 0.075 ml/kg; protected group with diphenylamine 4 mg/kg; reference group 20 mn. Here is the method: 3. […] This test provides a measure of the capability of the liver to metabolize some toxic materials. The principle is as follows: in normal mice, a certain sleeping time is induced by a certain dosage of pentobarbital; in mice which have been administered 48 hours previously a hepato-toxic material, the same pentobarbital dosage induces a longer sleeping time, because the injured liver has greater difficulty in metabolizing pentobarbital; on administration of a supposedly detoxicant material 24 hours after the toxic material, one may examine whether sleeping time is reduced or not and, thus, may quantify the resulting protection.
This test is effected using carbon tetrachloride as toxicant at a dosage of 0.075 ml/kg, and diphenylamine as protective material at a dosage of 4 mg/kg.

The mark [8] stands for this setting: hexachlorophene 90 mg/kg oral, 5 days, protected group with diphenylamine 2 mg/kg oral.

Regarding `c1ccc(Nc2ccccc2)cc1` [diphenylamine], the “action against certain myases” value in the data set with myases was “action against certain myases”. The “action against certain Nematodes” value in the data set on Nematodes is reported as “against certain Nematodes in dogs”. In addition, in the data set with mice [1], the “bithionol sulfoxide-induced acute toxicity” value is reported as “reduces the bithionol sulfoxide-induced acute toxicity in mice”. For the same compound, the anticonvulsant activity result in data set [2] is “anticonvulsant activity”. Further, the antiparasitic activity entry in data set [3] is recorded as “antiparasitic activity”. For the same compound, in the data set with mice [4], the hexachlorophene-induced acute toxicity entry was “reduces the hexachlorophene-induced acute toxicity in mice”. Further, in the data set with Limousin ewes (hexachlorophene 90 mg/kg, diphenylamine 2 mg/kg, oral, conclusion in words), the “weight stabilization and reduction of the clinical signs” value is “weight stabilization and the most substantial reduction of the clinical signs”. Further, the “S.G.O.T. level increase (in words)” value in [5] (diphenylamine 100 mg/kg) was “S.G.O.T. level increases in a significantly reduced manner”. Besides, the “death rate (in words)” value in the data set with sheep (hexachlorophene 135-142.5-150 mg/kg oral, sheep) is “significant decrease of the death rate”.
The term mortality denotes the percentage killed. Consider `[O-][S+](c1cc(Cl)cc(Cl)c1O)c1cc(Cl)cc(Cl)c1O` [bithionol sulfoxide], for which the mortality at 168 h amounted to 0% in data set [6] (bithionol sulfoxide 450 mg/kg oral, Group II with diphenylamine 22.5 mg/kg); 10% in [6] (bithionol sulfoxide 600 mg/kg oral, Group II with diphenylamine 30 mg/kg); 20% in [6] (bithionol sulfoxide 800 mg/kg oral, Group II with diphenylamine 40 mg/kg); 40% in data set [6] (bithionol sulfoxide 1066 mg/kg oral, Group II with diphenylamine 53 mg/kg); 30% in data set [6] (bithionol sulfoxide 1420 mg/kg oral, Group II with diphenylamine 71 mg/kg).
Regarding `Oc1c(Cl)cc(Cl)c(Cl)c1Cc1c(O)c(Cl)cc(Cl)c1Cl` [hexachlorophene], the mortality at 168 h was 10% in data set [7] (hexachlorophene 109.6 mg/kg oral); 20% in data set [7] (hexachlorophene 128.2 mg/kg oral); 20% in [7] (hexachlorophene 150 mg/kg oral); 40% in data set [7] (hexachlorophene 175.5 mg/kg oral); 60% in data set [7] (hexachlorophene 205.3 mg/kg oral). Also, the convulsions result with Limousin ewes (hexachlorophene 90 mg/kg oral, 5 days, one animal of the group) is on record as “in one animal of the group, convulsions were observed”. The clinical signs result in the data set on Limousin ewes (setting [8]) is “a sustained state of exhaustion was noted in the animals throughout the observation period”. Moreover, the “loss of weight (in words)” value with Limousin ewes (setting [8]) was “General loss of weight was noted”. Moreover, the “decrease of the weight within five days” value in the data set with Limousin ewes (hexachlorophene 90 mg/kg oral, unprotected group) was determined as 14.38%. The average weight in the data set on Limousin ewes (hexachlorophene 90 mg/kg oral, unprotected after five days (48.6 kg before), protected with diphenylamine 2 mg/kg, remained stable) is given as 41.66 kg. Further, the “Number of sheep killed” value was found to be 1 in the data set with sheep (hexachlorophene 135 mg/kg oral, diphenylamine 0 or 1.58 mg/kg); 4 in the data set on sheep (hexachlorophene 142.5 mg/kg oral, diphenylamine 0 or 1.67 mg/kg); 5 with sheep (hexachlorophene 150 mg/kg oral, diphenylamine 0 or 1.76 mg/kg).
Consider `ClC(Cl)(Cl)Cl` [CCl4, carbon tetrachloride], for which, in [5] (vs level prior to intoxication, Group II with diphenylamine 100 mg/kg simultaneously), the “Percent S.G.O.T. increase” value is given as 91%. The Sleeping time with liver is 109 mn.
